According to patent US8877795B2, “Identification of stabilizers of multimeric proteins” (The Board of Trustees of the Leland Stanford Junior …, priority 2010, dated 2014):
Read-outs that look alike come from different tables or passages of the source.

How the values were obtained:
human wild type TTR = human wild type TTR (Homo sapiens (Human), UniProt P02766); experiment: Isothermal titration calorimetry (ITC) of ligands against TTR; format: binding; settings: for TΔS binding entropy / ΔG binding free energy / ΔH binding enthalpy: ITC; for Kd: TTR 2 μM titrated with ligand 25 μM
Procedure: Calorimetric titrations were carried out on a VP-ITC calorimeter (MicroCal, Northhampton, Mass.). […] Prior to each titration, all samples were degassed for 10 minutes. The initial injection of 3.0 μL was followed by 30 injections of 8.0 μL each (25° C.) to the point that TTR was fully saturated with ligand. Integration of the thermogram after subtraction of blanks yielded a binding isotherm that was analyzed with MicroCal Origin 5.0 software.

TTR [1] = target: T1, TTR (Homo sapiens (Human), UniProt P02766); experiment: Fluorescence polarization displacement assay (probe 5 displaced from TTR); format: binding; settings: probe 5 100 nM, TTR 200 nM
Procedure: The affinity of test compounds to TTR was determined as follows. […] The samples were allowed to equilibrate by agitation for 20 min at room temperature and the fluorescence polarization was measured as described above. The data were fit to the following equation [y=(A−D)/(1+(x/C)^B)+D] where A=maximum FP signal, B=slope, C=apparent binding constant (Kapp), and D=minimum FP signal. The apparent binding constant was reported as mean for triplicate experiments and the best data fit was determined by R^2 value.

TTR [2] = target: T1, TTR; settings: read-out: Kd (reported affinity for TTR); cited from earlier work
[3] = target: wild type biotinylated TTR (Homo sapiens (Human), UniProt P02766); experiment: Surface plasmon resonance (SPR) assay for TTR-ligand interaction; format: binding
Procedure: To an ice-cold solution of TTR (20 μM) in PBS was added EZ-Link Sulfo-NHS-LC-Biotin at a ratio of ˜2:1 (biotin:TTR) (minimal biotinylation) and the solution was incubated at room temperature. After 1 hour, un-reacted biotin was removed by passing the sample over a fast (FPLC) desalting column (Superdex™ 75) equilibrated with PBS.
SPR measurements were performed at 25° C. using a Biacore T100 (GE Healthcare) instrument equilibrated in 1% DMSO in PBS as a running buffer. After pretreatment of the streptavidin-coated chip (Sensor Chop SA, Biacore), ˜4000 RU biotinylated TTR was immobilized on one channel leaving the second flow channel as a blank (streptavidin alone) control. For binding measurements, HTS hits were diluted in running buffer (1% DMSO/PBS) and different dilution series were flowed over the chip at 50 μL/min ([…], 600 s wash). A zero concentration sample was used as a negative control. The kinetic data was fitted to a one-to-one binding model using Biacore T100 evaluation software.

WT TTR = WT TTR (Homo sapiens (Human), UniProt P02766); experiment: Acid-mediated fibril formation assay for TTR amyloidogenesis (turbidity); settings: TTR 3.6 μM; for inhibition of fibril formation: substoichiometric: ligand 3.0 μM, monitored over 5 days
Procedure: The efficacy of each compound to inhibit TTR amyloidogenesis was determined by monitoring the turbidity of TTR aggregation at acidic pH, as described previously. […] The final 1 ml sample mixture was vortexed, then incubated at 37° C. for 72 hours, after which the sample was vortexed and the optical density was measured at 400 nm on a Beckman DU® 640 spectrophotometer. […] The optical density was also corrected for the absorption of all test compounds in the absence of TTR. […] The optical density (400 nm) was measured as described above at 0, 24, 48, 72, 96, and 120 hours. All assays were performed in triplicate and the average values obtained are presented.
TTR was preincubated with small molecules for 30 min at room temperature before amyloidosis was initiated (lowering pH to 4.4, incubation at 37° C.). […] The amyloidogenesis inhibition efficacy of each compound was determined by monitoring the turbidity of TTR (400 nm). The extent of TTR amyloidogenesis was quantitated at a fixed time point (72 h). All amyloid fibril formation data was normalized to TTR amyloidogenesis in the absence of inhibitor, assigned to be 100% fibril formation. […] The aggregation inhibition was monitored over 5 days using the acid-mediated fibril formation assay (compared to 3 days for the fixed time point described above) (FIG. 5B).

[4] = tested on: WT TTR cytotoxicity in human IMR-32 neuroblastoma cells; experiment: Inhibition of WT TTR cytotoxicity in IMR-32 cells; settings: TTR and ligand 8 μM, 24 h
Procedure: (§1) The human cardiac cell line AC16 was maintained in DMEM:F12 (1:1) supplemented with 10% FBS, 1 mM Hepes buffer, 2 mM L-glutamine, 100 units/mL penicillin and 100 μg/mL streptomycin. Two to 4-day-old cultures (˜70% confluent) were used for the experiments.
(§2) Recombinant WT TTR purified in the cold in HBSS (Mediatech, Manassas, Va.) was used as a cytotoxic insult to IMR-32 cells and the amyloidogenic V122I TTR was used as cytotoxic insult to cardiac AC16 cells. Candidate compounds (16 mM in DMSO) were diluted 1:1000 with WT TTR or V122I TTR (16 mM in HBSS, filter sterilized) or with HBSS only. The mixtures were vortexed and incubated for 24 h at 4° C. WT TTR or V122I TTR (16 mM in HBSS) containing the same amount of DMSO than TTR/candidate compound mixtures was prepared in parallel and incubated under the same conditions.
(§3) The neuroblastoma IMR-32 and the cardiac AC16 cells were seeded in black wall, clear bottom, tissue culture treated 96-well plates (Costar) at a density of 6,000 cells/well and 250 cells/well, respectively in Opti-mem supplemented with 5% FBS, 1 mM Hepes buffer, 2 mM L-glutamine, 100 units/mL penicillin and 100 μg/mL streptomycin, 0.05 mg/mL CaCl2 and incubated overnight at 37° C. The medium was then removed and replaced immediately by the TTR/compound or HBSS previously diluted 1:1 in Opti-mem supplemented with 0.8 mg/mL BSA, 2 mM Hepes buffer, 4 mM L-glutamine, 200 units/mL penicillin, 200 μg/mL streptomycin and 0.1 mg/mL CaCl2. The cells were incubated 24 h at 37° C. after which cell viability was measured.
(§4) Cell viability of the cells treated with TTR or TTR/candidate compound was evaluated by a resazurin reduction assay. Briefly, 10 μL/well of resazurin (500 mM, PBS) was added to each well and incubated for 2-3 h at 37° C. Viable cells reduce resazurin to the highly fluorescent resorufin dye, which is quantitated in a multiwell plate reader (Ex/Em 530/590 nm, Tecan Safire2, Austria). Cell viability was calculated as percentage of fluorescence relative to cells treated with vehicle only (100% viability) after subtraction of blank fluorescence (wells without cells). All experimental conditions were performed at least in six replicates. Averages and SEM corresponding to 2 independently performed experiments were calculated.
(§5) The compounds under study were pre-incubated with WT TTR or V122I TTR for 24 h at 4° C. at equimolar concentrations (8 μM) and added to IMR-32 cells or AC16 cells, respectively. Cell viability was measured after 24 h by a resazurin reduction assay. […] The percentage of viable cells was calculated relative to cells treated with vehicle only (cell culture media and DMSO)—which were assigned to be 100% viable.

[5] = tested on: V122I TTR cytotoxicity in human AC16 cardiac cells; experiment: Inhibition of V122I TTR cytotoxicity in AC16 cells; settings: TTR and ligand 8 μM, 24 h
Procedure: as §1, §2, §3, §4, §5

TTR [6] = target: T1, TTR; experiment: Fluorescence polarization saturation binding experiment
Procedure: The binding of probe 5 for TTR was evaluated as follows. […] The samples were allowed to equilibrate by agitation for 20 min at room temperature. Fluorescence polarization (excitation λ 485 nm, emission λ 525 nm, Cutoff λ 515 nm) measurements were taken using SpectraMax M5 Microplate Reader (Molecular Devices). […] Nonspecific FP, produced by the free fluorescent probe 5 as well as by binding of 5 to the plate, was equal to 70±10 mP.

IL-2 = IL-2 (Homo sapiens (Human), UniProt P60568); settings: cited from earlier work
[7] = 25° C., one-to-one binding model, read-out: Kd (ITC)
[8] = read-out: FP Kapp (apparent binding constant)

IL-2, sequence (P60568 21-153): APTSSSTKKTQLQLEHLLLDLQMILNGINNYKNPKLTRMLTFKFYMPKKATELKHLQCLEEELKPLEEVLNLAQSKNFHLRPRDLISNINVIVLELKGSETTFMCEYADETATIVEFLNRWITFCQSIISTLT

Compound	TΔS binding entropy (human wild type TTR)	ΔG binding free energy (human wild type TTR)	ΔH binding enthalpy (human wild type TTR)	Kd (human wild type TTR; [7])	Kd (human wild type TTR; read-out: ITC Kd)	Kd (TTR [1]; [8])	inhibition of fibril formation (WT TTR)	further results
O=C(O)c1ccc(-c2c(F)cccc2F)cc1 [Compound 1, reference compound]	-21.72 ± 0.26 kcal/mol	-9.74 ± 0.10 kcal/mol	-31.46 ± 0.37 kcal/mol	72.5 ± 4.7 nM	72.4 nM			apparent binding constant (Kapp) (TTR [1]; [8]): 231 nM; Kd (TTR [2]): 80 nM
NCCOCCOCCNC(=O)c1ccc(-c2c(F)cccc2F)cc1 [Compound 2, N-(2-(2-(2-aminoethoxy)ethoxy)ethyl)-2′,6′-difluorobiphenyl-4-carboxamide]				> 3290 nM	> 3290 nM	> 50000 nM		displacement of probe 5 from TTR (FP signal) (TTR [1]): did not displace probe 5
O=C(O)Cc1ccccc1Nc1c(Cl)cccc1Cl [Diclofenac, reference compound]	4.08 ± 0.37 kcal/mol	-8.78 ± 0.59 kcal/mol	-4.69 ± 0.42 kcal/mol	370 nM	370 nM	4660 nM	~55%	TΔS binding entropy (human wild type TTR; listed as diclofenac): 4.08 ± 0.37 kcal/mol; ΔG binding free energy (human wild type TTR; listed as diclofenac): -8.78 ± 0.59 kcal/mol; ΔH binding enthalpy (human wild type TTR; listed as diclofenac): -4.69 ± 0.42 kcal/mol; Kd ([3]; 25° C., read-out: Kd (SPR, equilibrium / steady state analysis)): 124 ± 8.91 nM; koff ([3]; SPR): 1.01 s⁻¹; kon ([3]; SPR): 8.18e+06 M⁻¹ s⁻¹; lower target residence time than 7 ([3]; SPR): ~40 ×
O=C(c1cc(O)c(O)c([N+](=O)[O-])c1)c1ccccc1F [Ro 41-0960, reference compound]	-4.3 ± 0.11 kcal/mol	-9.18 ± 0.47 kcal/mol	-13.5 ± 0.32 kcal/mol	184 nM			> 75%	TΔS binding entropy (human wild type TTR; listed as Ro41-0960): -4.3 ± 0.11 kcal/mol; ΔG binding free energy (human wild type TTR; listed as Ro41-0960): -9.18 ± 0.47 kcal/mol; ΔH binding enthalpy (human wild type TTR; listed as Ro41-0960): -13.5 ± 0.32 kcal/mol; prevention of WT TTR-induced cytotoxicity (in words) [4]: completely prevented TTR-induced cytotoxicity; prevention of V122I TTR-induced cytotoxicity (in words) [5]: completely prevented TTR-induced cytotoxicity; TTR aggregation inhibition (in words) (WT TTR; ligand 7.2 μM, 72 h): potent aggregation inhibitors
Fluorescein isothiocyanate [FITC]								change in FP signal upon addition of TTR (TTR [6]): no change in the FP signal
Ro26-4550								IC50 (IL-2; read-out: IC50 (IL-2 antagonist)): 3000 to 6000 nM; IC50 (IL-2; read-out: IC50 (Ro26-4550 bound to IL2)): 6000 nM
